Measured values as given in US5795860A, “Analogs for specific oligosaccharide-protein interactions and uses therefor” (Repligen Corporation, priority 1994, dated 1998).

Experiments:
IL-8 = IL-8 mediated inflammation, influx of polymorphonuclear leukocytes into the peritoneal cavity; type: in vivo, mouse; conditions: protamine chloride 100-250 mg i.v. (tail vein), IL-8 i.p.
Protocol: Typically about 50-100 μl of a sample of 1-2 μg of HAHBS suspended in phosphate buffered saline (PBS) or alternatively an equivalent amount of PBS alone is injected into the tail vein of a mouse at the same time that 1 μg of IL-8 is introduced into the peritoneal cavity. After 3 hours the peritoneal cavity is lavaged and the infiltrated cells are counted.
After 3 hours the peritoneal cavity is lavaged and the infiltrated cells are counted.
Typically a dose of 100-250 mg is suspended in PBS and injected into the tail vein of the mice. IL-8 is again injected into the peritoneal cavity.

[1] = test system: "Glyceptor" sequence-effector molecule interactions; assay: interference with "Glyceptor" sequence-effector molecule interactions; type: binding
[2] = heparin-agarose column, NaCl gradient elution; type: binding; conditions: NaCl gradient 0.125M up to 1M; 50 mM Tris
Protocol: A mutant IL-8 gene is synthesized in which the ELR sequence at positions 4-6 (Seq. ID No. 1) is modified to glu-leu-gln (ELQ). The modified gene is expressed in E. coli by standard techniques well known to those skilled in the art and the protein product is extracted from the lysed cell pellet with 6M guanidine-HCl. The extract is dialyzed against 50 mM Tris, 0.125M NaCl and passed over a heparin-agarose column. […] The mutant chemokine is eluted from the column at about 0.6-0.7M salt.

[3] = test system: "Glyceptor" sequences on post-capillary endothelium of human dermal tissue; assay: binding of 125I-labeled chemokine to human dermal tissue, microscopic autoradiography; conditions: for binding of 125I-labeled chemokine to vasculature / post-capillary endothelium: microscopic autoradiography
Protocol: A sample of human dermal tissue of about 1 mm^3 is incubated with ^125 I-labeled human IL-8 as described in the art (see, e.g., Rot, A. (1992) Cytokine 4, 347, the disclosure of which is incorporated herein by reference).

neutrophils = assay: activation or attraction of neutrophils; type: cell-based
[4] = affinity coelectrophoresis of ELQ-IL-8 with heparan sulfate; type: binding; conditions: compared with native IL-8
[5] = affinity coelectrophoresis of ELQ-IL-8 with heparin; type: binding; conditions: compared with native IL-8
Description: Commercial heparin (porcine mucosa, Sigma Biochemical) is radioactively labeled by first incorporating tyramine at the reducing end of the chains and then introducing radioactive iodine using the chloramine T reaction, a procedure well known in the art. The heparin is size fractionated on a Sephadex G-100 column (Pharmacia) and the last 10% of the heparin to elute is selected and utilized for the labeling. The labeled low molecular weight heparin is then bound to varying concentrations of IL-8 under equilibrium conditions using the technique of affinity coelectrophoresis, as described by Lee and Lander, Proc. Nat. Acad. Sci., U.S.A. (1991) 88, 2768-2772. Briefly, a horizontal 1% agarose gel is poured, using low melting point agarose, that contains nine rectangular wells of equal dimensions (about 3×10 mm). The buffer used comprises 125 mM sodium acetate, 50 mM MOPSO, pH 7.0. 0.5% 3-[3-cholamidopropyl) dimethylammonio]-1-propanesulfonate (CHAPS) may be used in the buffer to prevent adventitious binding of protein to vessel walls. The wells in the horizontal gel are subsequently filled with a requisite amount of 1% agarose which contains varying concentrations of IL-8 ranging from about 80 nM up to about 80 μM. The IL-8 may be produced by recombinant means as is well known in the art or may alternatively be produced as a synthetic peptide. […]

For protamine chloride, the toxicity (toxicity of protamine) was “generally toxic agent” and the “inhibition of neutrophil influx” value (IL-8) was “significant inhibition of neutrophil influx”.
With `Cc1ccc(C(=O)Nc2ccc(S(=O)(=O)O)c3cc(S(=O)(=O)O)cc(S(=O)(=O)O)c23)cc1NC(=O)c1cccc(NC(=O)Nc2cccc(C(=O)Nc3cc(C(=O)Nc4ccc(S(=O)(=O)O)c5cc(S(=O)(=O)O)cc(S(=O)(=O)O)c45)ccc3C)c2)c1` [suramin] the “interference with "Glyceptor" sequence-effector molecule interactions” value [1] was “interferes with "Glyceptor" sequence-effector molecule interactions”.
With “ELQ-IL-8: mutant IL-8 in which the ELR sequence at positions 4-6 (Seq. ID No. 1) is modified to glu-leu-gln (ELQ)” the “salt concentration eluting from heparin-agarose column” value [2] was 0.6 to 0.7 M, the “binding of labeled native IL-8 to vasculature in presence of ELQ-IL-8” value ([3]; 10 fold excess over radiolabeled native IL-8, ex vivo) was “substantially reduced” and the “binding of 125I-labeled chemokine to vasculature / post-capillary endothelium” value [3] was “Binding occurs in the same pattern as observed with native IL-8”. The “activation or attraction of neutrophils” value (neutrophils) was “not able to activate or attract neutrophils”, the “binding to heparan sulfate” value [4] was “behaves in a similar fashion to native IL-8” and the binding to heparin [5] was “behaves in a similar fashion to native IL-8”.
For IL-8: 125I-labeled human IL-8, the “binding of 125I-labeled chemokine to vasculature / post-capillary endothelium” value [3] was “binds preferentially to certain regions of the vasculature”.
